Results from article PMC10318527, “Utilization of dietary mixed-linkage β-glucans by the Firmicute Blautia producta” (The Journal of Biological Chemistry, 2023).

Columns and labels:
BPGH16 mutant R331A = test: Kinetics of BPGH16 mutant R331A (DNS assay); type: biochemical, Blautia producta ATCC 27340
Description: The residues R331, L358, E379, D381, E384, W362, and H398 of BpGH16MLG were mutated to Ala by the Q5Site-Directed Mutagenesis Kit (New England Biolabs, UK, catalogue no. E0554S). Wild-type plasmid BpGH16-pET28a(+) was used as a template, and mutagenic forward and reverse primers were developed using NEBaseChanger with subtle modifications (Table S4). A 25 μl PCR cocktail was prepared for mutating each residue. The final concentration of Q5 Hot Start High-Fidelity 2X Master Mix was 1X, each primer was at 0.5 μM, the amount of used template was 20 ng, and the rest of the volume was made up of nuclease-free water. PCR was executed using the following conditions-initial denaturation was performed at 98 °C for 1 min, for each cycle-denaturation, annealing, and extension (72 °C) were set for 10 s, 20 s, and 7 min, respectively. A total of 25 cycles were performed, and the final extension was for 5 min 5 μl PCR products were loaded on 0.8% agarose gel to conform to the amplification of the mutagenic gene. Ligation of PCR products and cleavage of methylated template DNA was then performed using 5 μl KLD reaction buffer and 1 μl KLD enzyme cocktail at RT for 1 h. It was then transformed into E. coli TOP-10 cells and plasmids were isolated. The obtained plasmids were sequenced to confirm the mutation at the desired location. Once mutation was confirmed in a gene, the mutant plasmid was transformed into Rosetta (DE3) cells for protein expression. The mutant protein was then expressed as per the protocol mentioned earlier, and kinetics were performed with barley β-glucan.
Reactions were performed in 100 μl volume mixture using recombinant enzyme (final concentration at 0.1 mg/ml) in 50 mM sodium phosphate buffer (pH 5.7) at 37 °C for 1 h of incubation. Then, reactions were terminated by boiling for 5 min. Enzymatic assays were determined with 3,5- dinitrosalicylic acid (DNS) assay ([85]). In brief, 0.05 g Na2SO3 and 1 g DNS were mixed in a 50 ml water-containing reagent bottle and stirred about 6 h using a magnetic stirrer. After that, 200 μl phenol was added and made up to 100 ml. A working solution of DNS was prepared by adding 50 μl glucose (20% (w/v) stock) in prepared 100 ml of reagent mixtures and immediately used for experiments without adding NaOH. 80 μl DNS reagent was added to the reaction mixtures and incubated at 100 °C for 10 min, followed by ice-cooling for 10 min. Consequently, recorded the developed color spectrophotometrically at 575 nm ([85]). A standard curve generated by different concentrations of maltose was used for determining released reducing sugars in each case.

BPGH16 mutant L358A = test: Kinetics of BPGH16 mutant L358A (DNS assay); type: biochemical, Blautia producta ATCC 27340
Description: (§1) The residues R331, L358, E379, D381, E384, W362, and H398 of BpGH16MLG were mutated to Ala by the Q5Site-Directed Mutagenesis Kit (New England Biolabs, UK, catalogue no. E0554S). Wild-type plasmid BpGH16-pET28a(+) was used as a template, and mutagenic forward and reverse primers were developed using NEBaseChanger with subtle modifications (Table S4). A 25 μl PCR cocktail was prepared for mutating each residue. The final concentration of Q5 Hot Start High-Fidelity 2X Master Mix was 1X, each primer was at 0.5 μM, the amount of used template was 20 ng, and the rest of the volume was made up of nuclease-free water. PCR was executed using the following conditions-initial denaturation was performed at 98 °C for 1 min, for each cycle-denaturation, annealing, and extension (72 °C) were set for 10 s, 20 s, and 7 min, respectively. […] The mutant protein was then expressed as per the protocol mentioned earlier, and kinetics were performed with barley β-glucan.
(§2) Reactions were performed in 100 μl volume mixture using recombinant enzyme (final concentration at 0.1 mg/ml) in 50 mM sodium phosphate buffer (pH 5.7) at 37 °C for 1 h of incubation. […] Enzymatic assays were determined with 3,5- dinitrosalicylic acid (DNS) assay ([85]). […] Consequently, recorded the developed color spectrophotometrically at 575 nm ([85]). […]

BPGH16 mutant E384A = test: Kinetics of BPGH16 mutant E384A (DNS assay); type: biochemical, Blautia producta ATCC 27340
Description: as §1, §2

BpGH16MLG = test: Initial screening of BpGH16MLG against substrates (TLC); type: biochemical, Blautia producta ATCC 27340; conditions: pH 5.7, 37 °C, 2 h
Description: After the appropriate incubation time, the reaction was terminated by boiling (5 min), and generated oligosaccharides were analyzed by thin layer chromatography (TLC). Typically, 1 μl of the reaction mixture was used for TLC analysis. TLC analysis was performed on Silica Gel 60 F254 (Merck), and produced sugars were visualized by spraying TLC with 5% H2SO4 in ethanol, followed by heating.

B. producta ATCC 27340 = test: Growth of B. producta on β-glucans; type: cell-based, Blautia producta ATCC 27340; conditions: minimal medium containing 1% glucan
Description: Active culture of B. producta and culture conditions were maintained following the recently reported procedure ([31]). Once B. producta grew, cells were centrifuged, and the obtained supernatant was decanted. A pellet of cells was then washed three times with phosphate-buffered saline (PBS) and washed cells were suspended in 2 ml PBS. […] The growth assessment experiments were performed for 96 h, following our recently established protocol ([82]).

proteome of B. producta = test: Proteomics of B. producta grown on barley β-glucan versus glucose; type: cell-based, Blautia producta ATCC 27340; conditions: barley β-glucan compared to glucose
Description: B. producta ATCC 27340 was anaerobically grown at 37 °C overnight, cells were collected by centrifugation (3000g at room temperature, RT) and washed thrice with 5 ml PBS. […] The strain was grown to the mid-late exponential phase ([…] ∼ 0.5-0.6) in two biological replicates. […] The lysate was centrifuged (15,000g, 15 min at 4 °C), and the supernatant was collected. Procedures for the precipitation of protein, trypsin digestion, and analysis of generated peptides have been mentioned in the Supplementary file. […] Protein quantities were then calculated using Bradford assay. […] Consequently, trypsin digestion of protein was attained by incubating the reaction at 37°C for 16 h using 5 μg trypsin (MS grade, Promega). The next day, the reaction was quenched by adding one volume of 2% (w/v) trifluoroacetic acid, and the obtained peptides were used for mass spectrometry. Analysis of peptides was carried out as reported by Singh et al. (83). Using the manufacturer's protocol, peptides from each replicate of B. producta ATCC 27340 were initially cleaned-up using Oasis HLB 1 cc Vac cartridges (Waters). The […] analysis of each sample was performed on a quadrupole-TOF hybrid mass spectrometer (TripleTOF 6600, SCIEX) coupled to an Eksigent Nano LC-425 system. […] method was created using 93 precursor isolation windows which were defined on the basis of precursor m/z frequencies in DDA run using the SWATH Variable Window Calculator (SCIEX), with a limitation window of 5 m/z. Analysis parameters were optimized before any sample was run. Nebulizer gas and curtain gas were maintained at 20 and 25 psi, respectively.

R. faecis = test: Growth of R. faecis on barley β-glucan; type: cell-based, Roseburia faecis; conditions: minimal medium with 1% barley β-glucan, no BpGH16MLG
Description: […] JCM 31261, B. pseudocatenulatum JCM 1200^T, B. adolescentis JCM 1275^T, B. coccoides JCM 1395^T, B. bifidum JCM 1254, and A. caccae JCM 13470^T were used for bacterial mono-culture experiments. […] About 5 μl glycerol stock was initially inoculated to 5 ml of GAM for the primary culture of these strains. […] The experiment was set up on 300 μl flat-bottomed 96-well microtiter plates. Reading was taken every interval of 8 h at 600 nm on a spectrophotometer.

BoGH16MLG = system: BoGH16MLG; set-up: method as in PMID 29141231; conditions: BoGH16MLG with barley MLG, no unit, cited from earlier work

For Barley β-glucan, the “increase in Km” value (BPGH16 mutant R331A; R331A versus native enzyme) was less than 2 fold, the reduction in kcat (BPGH16 mutant R331A; R331A versus native enzyme) was roughly 1.3 fold and the Km (BPGH16 mutant R331A; mutant R331A, DNS assay) was 0.35 ± 0.05 mg/mL. It also gave a kcat (BPGH16 mutant R331A; mutant R331A, DNS assay) of 48 ± 0.8 s⁻¹, a kcat (BPGH16 mutant L358A) of 0 s⁻¹ and a kcat (BPGH16 mutant E384A) of 0 s⁻¹. The “activity of BpGH16MLG on substrate (initial screening)” value (BpGH16MLG) was “did cleave”, the “growth of B. producta on the glucan” value (B. producta ATCC 27340) was “showed growth” and the “growth of B. producta on the glucan” value (B. producta ATCC 27340; listed as barley MLG) was “able to grow”. The “abundance of Bp1313” value (proteome of B. producta) was “approximately 5 fold”, the “abundance of Bp1314” value (proteome of B. producta) was roughly 16 fold and the “expression of Bp1317” value (proteome of B. producta) was “about 7 fold”. The “expression of Bp1318” value (proteome of B. producta) was “about 7 fold”, the “up-regulation of Bp3738 (GH18)” value (proteome of B. producta) was 5.1 fold and the “up-regulation of Bp4420 (GH3)” value (proteome of B. producta) was 3.4 fold. For the same substance, the “up-regulation of Bp8539 (GH3)” value (proteome of B. producta) was 12.4 fold, the “growth of R. faecis” value (R. faecis) was “could not grow” and the kcat (BoGH16MLG; in 1/s) was 85.8 ± 4.6. For the same substance, the Km (BoGH16MLG; in mg/mL) was 0.364 ± 0.051.
